The source of these data is US20250122181A1, “BENZIMIDAZOLES AS MODULATORS OF IL-17” (Janssen Pharmaceutica NV, priority 2021, published 2025).

pIC50: −log10 of the molar value. Where only a bound is given, the exact number is not on record here.

The test has as its system IL-17A-induced G-CSF production in human normal keratinocyte (NHK). Briefly: NHK Assay: IL-17A-induced G-CSF production in human normal keratinocyte. The following applies: 24 h, IL-17A 5 ng/mL, simple average if tested more than once. In kind it is cell-based. The procedure: IL-17A acts directly on keratinocytes through binding to dimeric receptor IL-17RA/RC and drives the production of a number of inflammatory mediators known to be elevated in psoriasis lesional tissue. IL-17A small molecule inhibitors that block the IL-17A to interact with IL-17R would inhibit the IL-17A signaling in its targeted cells such as keratinocytes. The compound functional activity is evaluated for its impact on IL-17A-induced G-CSF production in human normal keratinocyte (NHK).
Adult normal human keratinocytes are cultured in keratinocyte growth medium (Lonza) in a flask till reaching ˜90% confluence, then cells are transferred to a 384-well plate at density of 3000-4000 cell/well. Recombinant human IL-17A (Gibco PHC9174) is pre-incubated with titrated compound or DMSO for 1 h at rt then added to the cell culture plate. The final concentration of IL-17A is 5 ng/mL and DMSO is 0.2%, in the culture containing 5% FBS. Cells are cultured/treated for 24 h at 37° C. Supernatants are collected and G-CSF production is measured through HTRF technology using Human G-CSF Kit (CisBio). G-CSF concentration was extrapolated from the standard curve and IC50 is determined using GraphPad Prism. Cell viability is also evaluated using CellTiter-Glo kit (Promega) and effect of compound on cell viability is compared to DMSO control.

Broadly, the pIC50 is the negative decadic logarithm of the IC50, by convention in mol/L. Low readings indicate a high IC50, high ones a low IC50. The molecule `CO[C@@H](CC(F)(F)F)[C@H](NC(=O)c1nonc1C1CC1)c1nc2cc(CN3C[C@@H](C(F)(F)F)NC3=O)ccc2[nH]1` (relative stereo) [Example 46, 4-Cyclopropyl-N-((1R*,2S*)-4,4,4-trifluoro-2-methoxy-1-(5-(((S)-2-oxo-4-(trifluoromethyl)imidazolidin-1-yl)methyl)-1H-benzo[d]imidazol-2-yl)butyl)-1,2,5-oxadiazole-3-carboxamide] had a pIC50 (Homo sapiens, Keratinocyte) above 7.30.

Turning to `CO[C@H](CC(F)(F)F)[C@H](NC(=O)c1nonc1C)c1nc2cc(CN3C[C@@H](C(F)(F)F)NC3=O)ccc2[nH]1` (relative stereo) [Example 90, 4-Methyl-N-((1R*,2R*)-4,4,4-trifluoro-2-methoxy-1-(5-(((S)-2-oxo-4-(trifluoromethyl)imidazolidin-1-yl)methyl)-1H-benzo[d]imidazol-2-yl)butyl)-1,2,5-oxadiazole-3-carboxamide], the pIC50 (Homo sapiens, Keratinocyte) is below 7.00.

In turn, `CO[C@@H](CC(F)(F)F)[C@H](NC(=O)c1nonc1C)c1nc2cc(CN3C[C@@H](C(F)(F)F)NC3=O)ccc2[nH]1` (relative stereo) [Example 91, 4-Methyl-N-((1R*,2S*)-4,4,4-trifluoro-2-methoxy-1-(5-(((S)-2-oxo-4-(trifluoromethyl)imidazolidin-1-yl)methyl)-1H-benzo[d]imidazol-2-yl)butyl)-1,2,5-oxadiazole-3-carboxamide] showed a pIC50 (Homo sapiens, Keratinocyte) above 7.30.

Consider `CO[C@H](CC(F)(F)F)[C@@H](NC(=O)c1nonc1C1CC1)c1nc2cc(CN3C[C@@H](C(F)(F)F)NC3=O)ccc2[nH]1` (single isomer, unassigned) [Example 45, 4-Cyclopropyl-N-((1S*,2R*)-4,4,4-trifluoro-2-methoxy--(5-(((S)-2-oxo-4-(trifluoromethyl)imidazolidin-1-yl)methyl)-1H-benzo[d]imidazol-2-yl)butyl)-1,2,5-oxadiazole-3-carboxamide], for which the pIC50 (Homo sapiens, Keratinocyte) is 7.00 to 7.30.

The molecule `COCC(c1ccc2[nH]c([C@H](COC(C)(C)C(F)(F)F)NC(=O)c3nonc3C)nc2c1)N1C[C@@](C)(C(F)(F)F)NC1=O` (single isomer, unassigned) [Example 63, N—((R)-1-(5-((R*)-2-Methoxy-1-((S)-4-methyl-2-oxo-4-(trifluoromethyl)imidazolidin-1-yl)ethyl)-1H-benzo[d]imidazol-2-yl)-2-((1,1,1-trifluoro-2-methylpropan-2-yl)oxy)ethyl)-4-methyl-1,2,5-oxadiazole-3-carboxamide] showed a pIC50 (Homo sapiens, Keratinocyte) above 7.30.

For the molecule `COCC(c1ccc2[nH]c([C@H](COC(C)(C)C(F)(F)F)NC(=O)c3nonc3C)nc2c1)N1C[C@@](C)(C(F)(F)F)NC1=O` (single isomer, unassigned) [Example 64, N—((R)-1-(5-((S*)-2-Methoxy-1-((S)-4-methyl-2-oxo-4-(trifluoromethyl)imidazolidin-1-yl)ethyl)-1H-benzo[d]imidazol-2-yl)-2-((1,1,1-trifluoro-2-methylpropan-2-yl)oxy)ethyl)-4-methyl-1,2,5-oxadiazole-3-carboxamide], the pIC50 was below 7.00.

In the case of `Cc1nonc1C(=O)N[C@@H](COC(C)(C)C(F)(F)F)c1nc2cc([C@@H](C3CC3)N3CC(CC(F)(F)F)NC3=O)ccc2[nH]1` (single isomer, unassigned) [Example 88, N—((R)-1-(5-((R)-Cyclopropyl((R*)-2-oxo-4-(2,2,2-trifluoroethyl)imidazolidin-1-yl)methyl)-1H-benzo[d]imidazol-2-yl)-2-((1,1,1-trifluoro-2-methylpropan-2-yl)oxy)ethyl)-4-methyl-1,2,5-oxadiazole-3-carboxamide], the pIC50 (Homo sapiens, Keratinocyte) was above 7.30.

As to `Cc1nonc1C(=O)N[C@@H](COC(C)(C)C(F)(F)F)c1nc2cc([C@@H](C3CC3)N3CC(CC(F)(F)F)NC3=O)ccc2[nH]1` (single isomer, unassigned) [Example 89, N—((R)-1-(5-((R)-Cyclopropyl((S*)-2-oxo-4-(2,2,2-trifluoroethyl)imidazolidin-1-yl)methyl)-1H-benzo[d]imidazol-2-yl)-2-((1,1,1-trifluoro-2-methylpropan-2-yl)oxy)ethyl)-4-methyl-1,2,5-oxadiazole-3-carboxamide], the pIC50 was below 7.00.

Under “Homo sapiens, Keratinocyte”, `COC[C@H](c1ccc2[nH]c([C@@H](NC(=O)c3nonc3C3CC3)[C@@H](C)OC3CC3)nc2c1)N1C[C@@H](C(F)(F)F)NC1=O` [Example 42, N-((1R,2R)-2-Cyclopropoxy-1-(5-((S)-2-methoxy-1-((S)-2-oxo-4-(trifluoromethyl)imidazolidin-1-yl)ethyl)-1H-benzo[d]imidazol-2-yl)propyl)-4-cyclopropyl-1,2,5-oxadiazole-3-carboxamide] had a pIC50 above 7.30.

`COC[C@H](c1ccc2[nH]c([C@@H](NC(=O)c3nonc3C3CC3)[C@@H](C)OC3CC3)nc2c1)N1CC(F)(F)CNC1=O` [Example 43, N-((1R,2R)-2-Cyclopropoxy-1-(5-((S)-1-(5,5-difluoro-2-oxotetrahydropyrimidin-1(2H)-yl)-2-methoxyethyl)-1H-benzo[d]imidazol-2-yl)propyl)-4-cyclopropyl-1,2,5-oxadiazole-3-carboxamide] gave a pIC50 (Homo sapiens, Keratinocyte) above 7.30.

As to `COC[C@H](c1ccc2[nH]c([C@@H](NC(=O)c3nonc3C)[C@@H](C)OC3CC3)nc2c1)N1CC(F)(F)CNC1=O` [Example 65, N-((1R,2R)-2-Cyclopropoxy-1-(5-((S)-1-(5,5-difluoro-2-oxotetrahydropyrimidin-1(2H)-yl)-2-methoxyethyl)-1H-benzo[d]imidazol-2-yl)propyl)-4-methyl-1,2,5-oxadiazole-3-carboxamide], the pIC50 (Homo sapiens, Keratinocyte) was above 7.30.

Consider `Cc1nonc1C(=O)N[C@H](c1nc2cc([C@@H](COC3CC3)N3CC(F)(F)CNC3=O)ccc2[nH]1)[C@@H](C)O[C@@H](C)C(F)(F)F` [Example 66, N-((1R,2R)-1-(5-((S)-2-Cyclopropoxy-1-(5,5-difluoro-2-oxotetrahydropyrimidin-1(2H)-yl)ethyl)-1H-benzo[d]imidazol-2-yl)-2-(((S)-1,1,1-trifluoropropan-2-yl)oxy)propyl)-4-methyl-1,2,5-oxadiazole-3-carboxamide], for which the pIC50 (Homo sapiens, Keratinocyte) is above 7.30.

`C[C@H](O[C@H](C)[C@H](NC(=O)c1nonc1C1CC1)c1nc2cc([C@@H](COC3CC3)N3CC(F)(F)CNC3=O)ccc2[nH]1)C(F)(F)F` [Example 67, N-((1R,2R)-1-(5-((S)-2-Cyclopropoxy-1-(5,5-difluoro-2-oxotetrahydropyrimidin-1(2H)-yl)ethyl)-1H-benzo[d]imidazol-2-yl)-2-(((S)-1,1,1-trifluoropropan-2-yl)oxy)propyl)-4-cyclopropyl-1,2,5-oxadiazole-3-carboxamide] showed a negative-log IC50 (pIC50) (Homo sapiens, Keratinocyte) above 7.30.

On to `C[C@H](O[C@H](C)[C@H](NC(=O)c1nonc1C1CC1)c1nc2cc([C@@H](COC3CC3)N3C[C@@H](C(F)(F)F)NC3=O)ccc2[nH]1)C(F)(F)F` [Example 68, N-((1R,2R)-1-(5-((S)-2-Cyclopropoxy-1-((S)-2-oxo-4-(trifluoromethyl)imidazolidin-1-yl)ethyl)-1H-benzo[d]imidazol-2-yl)-2-(((S)-1,1,1-trifluoropropan-2-yl)oxy)propyl)-4-cyclopropyl-1,2,5-oxadiazole-3-carboxamide], for which the pIC50 (Homo sapiens, Keratinocyte) was above 7.30.

As for `[2H]C1([2H])N([C@@H](c2ccc3nc([C@H](COC(C)(C)C(F)(F)F)NC(=O)c4nonc4C4CC4)[nH]c3c2)C2CC2)C(=O)NCC1(F)F` [Example 76, 4-Cyclopropyl-N—((R)-1-(5-((R)-cyclopropyl(5,5-difluoro-2-oxotetrahydropyrimidin-1(2H)-yl-6,6-d2)methyl)-1H-benzo[d]imidazol-2-yl)-2-((1,1,1-trifluoro-2-methylpropan-2-yl)oxy)ethyl)-1,2,5-oxadiazole-3-carboxamide], where the note is “Homo sapiens, Keratinocyte”, the pIC50 is above 7.30.

With `[2H]C1([2H])N([C@@H](c2ccc3nc([C@H](COC(C)(C)C(F)(F)F)NC(=O)c4nonc4C)[nH]c3c2)C2CC2)C(=O)NCC1(F)F` [Example 77, N—((R)-1-(5-((R)-Cyclopropyl(5,5-difluoro-2-oxotetrahydropyrimidin-1(2H)-yl-6,6-d2)methyl)-1H-benzo[d]imidazol-2-yl)-2-((1,1,1-trifluoro-2-methylpropan-2-yl)oxy)ethyl)-4-methyl-1,2,5-oxadiazole-3-carboxamide], the pIC50 (Homo sapiens, Keratinocyte) is above 7.30.

`[2H]C1([2H])NC(=O)N([C@@H](c2ccc3[nH]c([C@H](COC(C)(C)C(F)(F)F)NC(=O)c4nonc4C4CC4)nc3c2)C2CC2)C([2H])([2H])C1(F)F` [Example 78, 4-Cyclopropyl-N—((R)-1-(5-((R)-cyclopropyl(5,5-difluoro-2-oxotetrahydropyrimidin-1(2H)-yl-4,4,6,6-d4)methyl)-1H-benzo[d]imidazol-2-yl)-2-((1,1,1-trifluoro-2-methylpropan-2-yl)oxy)ethyl)-1,2,5-oxadiazole-3-carboxamide] showed a pIC50 (Homo sapiens, Keratinocyte) above 7.30.

Consider `[2H]C1([2H])NC(=O)N([C@@H](c2ccc3[nH]c([C@H](COC(C)(C)C(F)(F)F)NC(=O)c4ccnn4C(C)C)nc3c2)C2CC2)C([2H])([2H])C1(F)F` [Example 79, N—((R)-1-(5-((R)-Cyclopropyl(5,5-difluoro-2-oxotetrahydropyrimidin-1(2H)-yl-4,4,6,6-d4)methyl)-1H-benzo[d]imidazol-2-yl)-2-((1,1,1-trifluoro-2-methylpropan-2-yl)oxy)ethyl)-1-isopropyl-1H-pyrazole-5-carboxamide], for which the negative-log IC50 (pIC50) (Homo sapiens, Keratinocyte) was above 7.30.
